Read-outs that look alike come from different tables or passages of the source.
Legend:
[1] = tested on: BT/Lap^R1.0; assay: Cell survival (ATPlite/CellTiter-Glo luminescence), alone and combined with lapatinib; format: cell-based, human; details: BT/Lap^R1.0 cells; for Survival rate %: 72 hours
Procedure: (§1) Cells plating: a 100 mm culture dish with overgrown adherent cells was digested with 1 ml 0.25% trypsin (GIBCO) at 37° C. for 5 min, and the reaction was terminated with 2 ml culture medium (containing 10% FBS, GIBCO). The cells were scattered and collected, after counting, diluted to 1×10^5 cells/ml, and seeded into a 96-well plate at 50 μl/well, 5000 cells/well, excluding the peripheral circle of wells to which no cell was added, but PBS was added, 60 wells in total, and then incubated at 37° C. for 24 hours for adhering.
(§2) Test after incubation at 37° C. for 72 hours: […] of ATPlite kit substrate solution was added in each well, and vibrated for 3 min, followed by placing aside in darkness for 10 min, and then supernatant 100 μl/well was taken and placed on aluminescence test plate; the luminescence test plate that has been fully incubated was placed in a luminescence test instrument, to read luminescence value.
(§3) (1) Cell survival rate (%)=Experimental group RLU/control group RLU×100%. The experimental data were subjected to data analysis and processing by utilizing GraphPad software.
(§4) (2) The nature of interaction between two drugs was evaluated by using coefficient of drug interaction (CDI), CDI being calculated as follows: CDI=AB/(A×B)×100%. As calculated according to the number of viable cells (luminescence value), when CDI<1, the nature of interaction between two drugs is synergism; when CDI<0.7, the synergism is very significant; when CDI=1, the nature of interaction between two drugs is addition; when CDI>1, the nature of interaction between two drugs is antagonism.

[2] = tested on: BT474; assay: as above; format: cell-based, human; details: BT474 cells; for Survival rate %: 72 hours
Procedure: as §1, §2, §3, §4

[3] = tested on: MDA-MB-361; assay: as above; format: cell-based, human; details: MDA-MB-361 cells, 72 hours
Procedure: as §1, §2, §3, §4

[4] = tested on: SK-BR3; assay: as above; format: cell-based, human; details: SK-BR3 cells; for Survival rate %: 72 hours
Procedure: as §1, §2, §3, §4

[5] = tested on: SK/Lap^R1.0; assay: as above; format: cell-based, human; details: SK/Lap^R1.0 cells, 72 hours
Procedure: as §1, §2, §3, §4

[6] = target: T1, Hsp70 (Homo sapiens, UniProt P0DMV8); assay: Measurement of affinity for Hsp70 (BIACORE T100, CM5 chip); format: binding; details: for effect in preliminary screening of binding to Hsp70, compared with positive compound VER-155008: at 10 μm; for Kd: steady state model, 25° C., PBS containing 5% DMSO
T1 construct: purchased Enzo Life Sciences ADI-ESP-550-D
T1 sequence (P0DMV8 whole entry): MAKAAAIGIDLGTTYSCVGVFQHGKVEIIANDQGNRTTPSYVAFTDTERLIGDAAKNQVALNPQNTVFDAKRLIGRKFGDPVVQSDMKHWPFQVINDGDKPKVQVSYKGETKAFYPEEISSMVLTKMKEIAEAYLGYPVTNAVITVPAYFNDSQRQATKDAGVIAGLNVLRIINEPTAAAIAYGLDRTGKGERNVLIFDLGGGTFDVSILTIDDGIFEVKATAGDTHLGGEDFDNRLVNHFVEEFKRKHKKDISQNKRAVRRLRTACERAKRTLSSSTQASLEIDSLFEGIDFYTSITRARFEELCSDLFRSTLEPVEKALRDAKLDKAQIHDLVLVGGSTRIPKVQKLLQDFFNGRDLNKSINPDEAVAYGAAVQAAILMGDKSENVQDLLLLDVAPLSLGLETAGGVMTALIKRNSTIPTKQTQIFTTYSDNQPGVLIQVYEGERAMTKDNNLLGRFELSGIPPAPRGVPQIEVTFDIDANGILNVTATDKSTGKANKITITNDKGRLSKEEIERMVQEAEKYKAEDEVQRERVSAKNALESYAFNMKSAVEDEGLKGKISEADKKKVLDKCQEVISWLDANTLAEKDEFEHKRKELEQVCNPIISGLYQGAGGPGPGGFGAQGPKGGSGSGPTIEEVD
Procedure: 1. Instrument: BIACORE T100 biomolecular interaction analyzer (GE, USA)
2. Reagents: PBS Buffer (×10), P20, CM5 chip (GE, USA), Hsp70 (human, ADI-ESP-550-D), manufactured by Enzo Life Sciences.
30 mM mother liquor of compound was formulated with DMSO, which was diluted to 2 mM application solution with DMSO before use. 5 μl of the application solution was taken and diluted with 95 μl 1.05×PBS to 100 μM, and then diluted in turn with PBS containing 5% DMSO to 10, 3, 1, 0.3, 0.1, 0.03, 0.01, 0.003 μM, […]. PBS containing 5% DMSO was used as solvent control.
Hsp70 protein was diluted with 10 mmol/L sodium acetate buffer solution (pH 5.0) to 30 μg/ml, and coupled directly on a hydrophilic carboxylmethyl dextran matrix sensor chip M5 through normalized primary amine coupling reaction, RU=11209, and then the chip was balanced for 1-2 h with PBS Buffer at […].
At a flow rate of […], with PBS containing 5% DMSO as mobile phase, at 25° C., the compound was introduced in the sequence of 0.003, 0.01, 0.03, 0.1, 0.3, 1, 3 and 10 μM, with binding time 90 seconds, and dissociation time 120 seconds.
According to binding characteristics between the compounds and protein, the binding constant (equilibrium dissociation constant KD) between drugs and protein was calculated by selecting steady state model with the formula: Conc*Rmax/[conc+KD]+offset.
At a flow rate of […], PBS containing 5% DMSO as mobile phase, at 25° C., the compound was injected in the order of 0.003, 0.01, 0.03, 0.1, 0.3, 1, 3, and 10 μM, with the binding time of 90 sec, and the dissociation time of 120 sec.

[7] = target: T1, Hsp70; details: literature value (Cancer Chemother Pharmacol 2010, 66: 535-545); read-out: affinity for Hsp70, literature value; cited from earlier work
[8] = tested on: MDA-MB-453; assay: Cell survival (ATPlite/CellTiter-Glo luminescence), alone and combined with lapatinib; format: cell-based, human; details: MDA-MB-453 cells; for Survival rate %: 72 hours
Procedure: as §1, §2, §3, §4

[9] = Lapatinib 1 μM alone (Example 30 0 μM)
[10] = Example 30 10 μM alone (Lapatinib 0)
[11] = Example 30 10 μM combined with Lapatinib 1 μM
[12] = Example 30 10 μM with Lapatinib 1 μM, CDI<1 synergism

With CS(=O)(=O)CCNCc1ccc(-c2ccc3ncnc(Nc4ccc(OCc5cccc(F)c5)c(Cl)c4)c3c2)o1 [Lapatinib, reference compound] as the compound, how does the Survival rate % [1, 9] read?
Its Survival rate % is 53.0%.

And the Survival rate % [2, 9]?
The Survival rate % was 25.1%.

And the Survival rate % [3, 9]?
Its Survival rate % is 70.4%.

And the Survival rate % [4, 9]?
Its Survival rate % is 26.3%.

What about the Survival rate % [5, 9] of the same compound?
Its Survival rate % is 92.7%.

For CN(C(=O)OC(C)(C)C)C1CCN(c2nccc(Cl)n2)CC1 [Example 1, t-butyl N-methyl-N-[1-(4-chloropyrimidin-2-yl)piperidin-4-yl]carbamate], which “effect in preliminary screening of binding to Hsp70, compared with positive compound VER-155008” value [6] is on record?
Its value is “equivalent to that of positive compound VER-155008”.

And the Kd [6]?
The Kd was 2190 nM.

For N#Cc1ccc(COC[C@H]2O[C@@H](n3c(NCc4ccc(Cl)c(Cl)c4)nc4c(N)ncnc43)[C@H](O)[C@@H]2O)cc1 [VER-155008], which Kd [7] is on record?
The Kd was 300 nM.

With CN(C(=O)OC(C)(C)C)C1CCN(c2cc(Cl)ncn2)CC1 [Example 3, t-butyl N-methyl-N-[1-(6-chloropyrimidin-4-yl)piperidin-4-yl]carbamate] as the compound, how does the “effect in preliminary screening of binding to Hsp70, compared with positive compound VER-155008” value [6] read?
The value was “equivalent to that of positive compound VER-155008”.

And the Kd [6]?
The Kd was 525 nM.

For CSc1nccc(N2CCC(N(C)C(=O)O[C@H]3CCN(S(=O)(=O)c4cccs4)C3)CC2)n1 [Example 13, (S)-[1-(2-thienylsulfonyl)pyrrolidin-3-yl] N-methyl-N-[1-(2-methylthiopyrimidin-4-yl)piperidin-4-yl]carbamate], which “effect in preliminary screening of binding to Hsp70, compared with positive compound VER-155008” value [6] is on record?
Its value is “equivalent to that of positive compound VER-155008”.

And the Kd [6]?
The Kd was 520 nM.

With COc1nccc(N2CCC(N(C)C(=O)OC(C)(C)C)CC2)n1 [Example 5, t-butyl N-methyl-N-[1-(2-methoxypyrimidin-4-yl)piperidin-4-yl]carbamate] as the compound, how does the “effect in preliminary screening of binding to Hsp70, compared with positive compound VER-155008” value [6] read?
The value was “equivalent to that of positive compound VER-155008”.

What does the source list for COc1ccnc(N2CCC(N(C)C(=O)Cn3cncn3)CC2)n1 [Example 42, N-methyl-N-[1-(4-methoxypyrimidin-2-yl)piperidin-4-yl]-2-(1H-1,2,4-triazol-1-yl) acetamide]?
effect in preliminary screening of binding to Hsp70, compared with positive compound VER-155008 [6]: equivalent to that of positive compound VER-155008; Kd [6]: 434 nM

For CN(C(=O)Cn1ccnc1)C1CCN(c2nccc(Cl)n2)CC1 [Example 30, N-methyl-N-[1-(4-chloropyrimidin-2-yl)piperidin-4-yl]-[2-(imidazol-1-yl)]acetamide], which Survival rate % [1, 10] is on record?
The Survival rate % was 92.5%.

And the Survival rate % [1, 11]?
Its Survival rate % is 50.6%.

And the “CDI (coefficient of drug interaction)” value [1, 12]?
Its value is 1.03.

What about the Survival rate % [2, 10] of the same compound?
The Survival rate % was 93.5%.

And the Survival rate % [2, 11]?
The Survival rate % was 24.8%.

What about the “CDI (coefficient of drug interaction)” value [2, 12] of the same compound?
The value was 1.05.

What about the Survival rate % [3, 10] of the same compound?
The Survival rate % was 104.1%.

What about the Survival rate % [3, 11] of the same compound?
The Survival rate % was 69.1%.

What about the Survival rate % [8, 10] of the same compound?
Its Survival rate % is 82.8%.

And the Survival rate % [8, 11]?
The Survival rate % was 36.6%.

And the “CDI (coefficient of drug interaction)” value [8, 12]?
The value was 1.26.

And the Survival rate % [4, 10]?
Its Survival rate % is 83.8%.

And the Survival rate % [4, 11]?
The Survival rate % was 24.9%.

And the “CDI (coefficient of drug interaction)” value [4, 12]?
Its value is 1.13.

And the Survival rate % [5, 10]?
The Survival rate % was 94.2%.

And the Survival rate % [5, 11]?
The Survival rate % was 56.9%.

What about the “effect in preliminary screening of binding to Hsp70, compared with positive compound VER-155008” value [6] of the same compound?
The value was “equivalent to that of positive compound VER-155008”.

What about the Kd [6] of the same compound?
Its Kd is 225 nM.

For CN(C(=O)OC(C)(C)C)C1CCN(c2ccnc(Cl)n2)CC1 [Example 2, t-butyl N-methyl-N-[1-(2-chloropyrimidin-4-yl)piperidin-4-yl]carbamate], which “effect in preliminary screening of binding to Hsp70, compared with positive compound VER-155008” value [6] is on record?
Its value is “equivalent to that of positive compound VER-155008”.

What about the Kd [6] of the same compound?
The Kd was 247 nM.

With CSc1nccc(N2CCC(N(C)C(=O)OC(C)(C)C)CC2)n1 [Example 6, t-butyl N-methyl-N-[1-(2-methylthiopyrimidin-4-yl)piperidin-4-yl]carbamate] as the compound, how does the “effect in preliminary screening of binding to Hsp70, compared with positive compound VER-155008” value [6] read?
Its value is “equivalent to that of positive compound VER-155008”.

What about the Kd [6] of the same compound?
The Kd was 12700 nM.

Reference: patent US10301279B2, “Piperidine carboxamide compound, preparation method, and use thereof” (Institute of Pharmacology and Toxicology Academy of …, priority 2013, dated 2019)
